# Test results from the supplement of paper PMC10307832.
# How the values were obtained:
# Assay in all cases: relative viability (nuclei count vs DMSO), 5 days (fraction); higher = more cells survive
# NCI-H522 = test system: NCI-H522
# Summary of the method: (§1)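 The day after seeding in 1536-well plates, lung cancer cell lines were treated by pin tool with a single drug, or with a fixed anchor-drug dose together with five library-drug doses (not always all listed) in √10 steps. After 5 days, a combined fix-and-stain solution (final 0.05% Triton X-100, 1% formaldehyde, 1 ug/ml Hoechst) was added. Nuclei counted on 4× images gave relative viability as treated counts over vehicle counts, reported as the median of duplicate plates.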
# NCI-H2170 = test system: NCI-H2170
# Summary of the method: as §1
# NCI-H1355 = test system: NCI-H1355
# Summary of the method: as §1
# NCI-H2347 = test system: NCI-H2347
# Summary of the method: as §1
# NCI-H1734 = test system: NCI-H1734
# Summary of the method: as §1
# NCI-H1755 = test system: NCI-H1755
# Summary of the method: as §1
# NCI-H358 = test system: NCI-H358
# Summary of the method: as §1
# NCI-H838 = test system: NCI-H838
# Summary of the method: as §1
# NCI-H1993 = test system: NCI-H1993
# Summary of the method: as §1
# NCI-H647 = test system: NCI-H647
# Summary of the method: as §1
# NCI-H1793 = test system: NCI-H1793
# Summary of the method: as §1
# HCC-15 = test system: HCC-15
# Summary of the method: as §1
# HOP-62 = test system: HOP-62
# Summary of the method: as §1
# HARA = test system: HARA
# Summary of the method: as §1
# NCI-H1395 = test system: NCI-H1395
# Summary of the method: as §1
# NCI-H1792 = test system: NCI-H1792
# Summary of the method: as §1
smiles,measurement,setting,value
CC(=O)O[C@@]12CO[C@@H]1C[C@H](O)[C@@]1(C)C(=O)[C@H](O)C3=C(C)[C@@H](OC(=O)[C@H](O)[C@@H](NC(=O)OC(C)(C)C)c4ccccc4)C[C@@](O)([C@@H](OC(=O)c4ccccc4)[C@H]21)C3(C)C [Docetaxel] + NC(=O)Nc1cc(-c2cccc(F)c2)sc1C(=O)N[C@H]1CCCNC1 [AZD7762] (partner 0.2 µM),relative viability,NCI-H522; first compound 0.0002 µM,0.927
same,relative viability,NCI-H522; first compound 0.000632 µM,1.08
same,relative viability,NCI-H522; first compound 0.002 µM,0.622
same,relative viability,NCI-H522; first compound 0.006325 µM,0.484
same,relative viability,NCI-H522; first compound 0.02 µM,0.373
same,relative viability,NCI-H2170; first compound 0.0002 µM,0.895
same,relative viability,NCI-H2170; first compound 0.000632 µM,0.722
same,relative viability,NCI-H2170; first compound 0.002 µM,0.581
same,relative viability,NCI-H2170; first compound 0.02 µM,0.131
same,relative viability,NCI-H1355; first compound 0.0002 µM,0.698
same,relative viability,NCI-H1355; first compound 0.000632 µM,0.758
same,relative viability,NCI-H1355; first compound 0.002 µM,0.411
same,relative viability,NCI-H1355; first compound 0.02 µM,0.191
same,relative viability,NCI-H2347; first compound 0.0002 µM,0.697
same,relative viability,NCI-H2347; first compound 0.000632 µM,0.583
same,relative viability,NCI-H2347; first compound 0.002 µM,0.434
same,relative viability,NCI-H2347; first compound 0.006325 µM,0.395
same,relative viability,NCI-H2347; first compound 0.02 µM,0.268
same,relative viability,NCI-H1734; first compound 0.0002 µM,0.449
same,relative viability,NCI-H1734; first compound 0.000632 µM,0.384
same,relative viability,NCI-H1734; first compound 0.002 µM,0.199
same,relative viability,NCI-H1734; first compound 0.006325 µM,0.222
same,relative viability,NCI-H1734; first compound 0.02 µM,0.164
same,relative viability,NCI-H1755; first compound 0.0002 µM,0.488
same,relative viability,NCI-H1755; first compound 0.000632 µM,0.396
same,relative viability,NCI-H1755; first compound 0.002 µM,0.324
same,relative viability,NCI-H1755; first compound 0.006325 µM,0.401
same,relative viability,NCI-H1755; first compound 0.02 µM,0.352
same,relative viability,NCI-H358; first compound 0.0002 µM,0.429
same,relative viability,NCI-H358; first compound 0.000632 µM,0.328
same,relative viability,NCI-H358; first compound 0.006325 µM,0.24
same,relative viability,NCI-H358; first compound 0.02 µM,0.159
same,relative viability,NCI-H838; first compound 0.0002 µM,0.955
same,relative viability,NCI-H838; first compound 0.000632 µM,0.915
same,relative viability,NCI-H838; first compound 0.002 µM,0.639
same,relative viability,NCI-H838; first compound 0.006325 µM,0.606
same,relative viability,NCI-H838; first compound 0.02 µM,0.574
same,relative viability,NCI-H1993; first compound 0.0002 µM,0.873
same,relative viability,NCI-H1993; first compound 0.000632 µM,0.739
same,relative viability,NCI-H1993; first compound 0.002 µM,0.603
same,relative viability,NCI-H1993; first compound 0.006325 µM,0.477
same,relative viability,NCI-H1993; first compound 0.02 µM,0.303
same,relative viability,NCI-H647; first compound 0.0002 µM,0.297
same,relative viability,NCI-H647; first compound 0.000632 µM,0.217
same,relative viability,NCI-H647; first compound 0.002 µM,0.0746
same,relative viability,NCI-H647; first compound 0.006325 µM,0.0816
same,relative viability,NCI-H647; first compound 0.02 µM,0.0266
same,relative viability,NCI-H1793; first compound 0.0002 µM,0.369
same,relative viability,NCI-H1793; first compound 0.000632 µM,0.381
same,relative viability,NCI-H1793; first compound 0.002 µM,0.299
same,relative viability,NCI-H1793; first compound 0.006325 µM,0.204
same,relative viability,NCI-H1793; first compound 0.02 µM,0.144
same,relative viability,HCC-15; first compound 0.0002 µM,1.18
same,relative viability,HCC-15; first compound 0.000632 µM,1.02
same,relative viability,HCC-15; first compound 0.002 µM,0.433
same,relative viability,HCC-15; first compound 0.006325 µM,0.289
same,relative viability,HCC-15; first compound 0.02 µM,0.256
same,relative viability,HOP-62; first compound 0.0002 µM,0.6
same,relative viability,HOP-62; first compound 0.000632 µM,0.395
same,relative viability,HOP-62; first compound 0.02 µM,0.0943
same,relative viability,HARA; first compound 0.0002 µM,0.273
same,relative viability,HARA; first compound 0.000632 µM,0.201
same,relative viability,HARA; first compound 0.002 µM,0.105
same,relative viability,HARA; first compound 0.006325 µM,0.193
same,relative viability,HARA; first compound 0.02 µM,0.076
same,relative viability,NCI-H1395; first compound 0.0002 µM,0.421
same,relative viability,NCI-H1395; first compound 0.000632 µM,0.38
same,relative viability,NCI-H1395; first compound 0.002 µM,0.379
same,relative viability,NCI-H1395; first compound 0.006325 µM,0.343
same,relative viability,NCI-H1395; first compound 0.02 µM,0.32
same,relative viability,NCI-H1792; first compound 0.0002 µM,0.666
same,relative viability,NCI-H1792; first compound 0.000632 µM,0.465
same,relative viability,NCI-H1792; first compound 0.002 µM,0.24
same,relative viability,NCI-H1792; first compound 0.006325 µM,0.0705
same,relative viability,NCI-H1792; first compound 0.02 µM,0.0512
